Results as given in the supplement of paper PMC11451515.

Columns and labels:
Conditions in all cases: 48 h
[1] = tested on: P12-Ichikawa; assay: AUC of viability dose-response curve (% viability x log10 dose units); higher = less sensitive
Summary of the method: (§1)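 Leukemia cells adapted to each medium were seeded in 1536-well plates (500 or 1000 cells/well) and given library compounds in DMSO for 48 h at 37°C. The 11 threefold doses spanned 47 μM to 0.79 nM, and CellTiter-Glo One luminescence was normalised per plate to DMSO and cell-free wells before four-parameter log-logistic fitting on log10 dose. Area under the curve was integrated with the trapezoidal rule, scaling curves above full viability and removing curves that failed quality control.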

[2] = tested on: SEM cells; assay: as above
Summary of the method: as §1

[3] = tested on: NOMO1; assay: as above
Summary of the method: as §1

[4] = tested on: SEM cells; assay: cell viability relative to DMSO control; higher = less cytotoxic
Summary of the method: (§2)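 Leukemia cells (NOMO1 or SEM, 500 cells/well; P12-Ichikawa, 1000 cells/well) were seeded in 5 μl in 1536-well plates after at least four passages of adaptation to each medium. They received library compounds in DMSO by pin dosing, 11 threefold points from 47 μM to 0.79 nM. Luminescence with CellTiter-Glo One was read after 48 h at 37°C. Viability is stated per plate relative to DMSO wells, with cell-free wells as background.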

[5] = tested on: P12-Ichikawa; assay: as above
Summary of the method: as §2

[6] = tested on: NOMO1; assay: as above
Summary of the method: as §2

Fc1ccc(Cl)cc1-c1nc(Nc2ccncc2)c2nccnc2n1
AUC of viability dose-response curve
Conditions	[1]	[2]	[3]
HPLM + 10% dialyzed FBS	463	453	461
RPMI 5 mM glucose + 10% FBS	457	464	438
RPMI 5 mM glucose + 10% dialyzed FBS	451	467	442

C/C=C/C[C@@H](C)C(=O)[C@H]1C(=O)N[C@@H](C(C)C)C(=O)N(C)CC(=O)N(C)[C@@H](CC(C)C)C(=O)N[C@@H](C(C)C)C(=O)N(C)[C@@H](CC(C)C)C(=O)N[C@@H](C)C(=O)N[C@H](C)C(=O)N(C)[C@@H](CC(C)C)C(=O)N(C)[C@@H](CC(C)C)C(=O)N(C)[C@@H](C(C)C)C(=O)N1C
AUC of viability dose-response curve
Conditions	[1]	[2]	[3]
HPLM + 10% dialyzed FBS	424	427	441
RPMI 5 mM glucose + 10% FBS	413	406	466
RPMI 5 mM glucose + 10% dialyzed FBS	411	424	461

[4], RPMI 5 mM glucose + 10% dialyzed FBS
Conditions	cell viability [%]
0.000781 µM	125
0.00234 µM	125
0.00702 µM	108
0.0211 µM	151
0.0632 µM	131
0.19 µM	120
0.569 µM	123
1.71 µM	108
5.12 µM	108
15.4 µM	71.6
46.1 µM	23.7

CN(CC#C)C/C1=C/C2=CC=CC=C2OC3=CC=CC=C13
AUC of viability dose-response curve
Conditions	HPLM + 10% dialyzed FBS	RPMI 5 mM glucose + 10% FBS	RPMI 5 mM glucose + 10% dialyzed FBS
[1]	417	407	400
[3]	401	400	407

cell viability [%]
Conditions	[4]	[5]	[6]
HPLM + 10% dialyzed FBS, 0.000781 µM	90.9	91	82.4
HPLM + 10% dialyzed FBS, 0.00234 µM	90.7	85	98.5
HPLM + 10% dialyzed FBS, 0.00702 µM	79.7	92	91.5
HPLM + 10% dialyzed FBS, 0.0211 µM	80.1	87.6	89.2
HPLM + 10% dialyzed FBS, 0.0632 µM	76.8	90.8	98.9
HPLM + 10% dialyzed FBS, 0.19 µM	40.6	89.6	91.2
HPLM + 10% dialyzed FBS, 0.569 µM	32.1	90.1	85.2
HPLM + 10% dialyzed FBS, 1.71 µM	91.6	80.8	70.4
HPLM + 10% dialyzed FBS, 5.12 µM	30.1	84.1	82.3
HPLM + 10% dialyzed FBS, 15.4 µM	49.2	83	65.1
HPLM + 10% dialyzed FBS, 46.1 µM	42	87.1	64
RPMI 5 mM glucose + 10% FBS, 0.000781 µM	100	91.8	81.3
RPMI 5 mM glucose + 10% FBS, 0.00234 µM	109	86.1	85.1
RPMI 5 mM glucose + 10% FBS, 0.00702 µM	113	88.2	82.2
RPMI 5 mM glucose + 10% FBS, 0.0211 µM	105	91.2	94.4
RPMI 5 mM glucose + 10% FBS, 0.0632 µM	83.3	92.6	86.3
RPMI 5 mM glucose + 10% FBS, 0.19 µM	49.9	84.7	77.5
RPMI 5 mM glucose + 10% FBS, 0.569 µM	36.8	76.5	92.6
RPMI 5 mM glucose + 10% FBS, 1.71 µM	117	83.3	81.3
RPMI 5 mM glucose + 10% FBS, 5.12 µM	41.4	78.4	80
RPMI 5 mM glucose + 10% FBS, 15.4 µM	61.3	83.1	85.1
RPMI 5 mM glucose + 10% FBS, 46.1 µM	50.3	82	75.5
RPMI 5 mM glucose + 10% dialyzed FBS, 0.000781 µM	80.4	83.3	89.1
RPMI 5 mM glucose + 10% dialyzed FBS, 0.00234 µM	85.3	81	81.7
RPMI 5 mM glucose + 10% dialyzed FBS, 0.00702 µM	81.2	89.8	83.8
RPMI 5 mM glucose + 10% dialyzed FBS, 0.0211 µM	69.2	87.8	87
RPMI 5 mM glucose + 10% dialyzed FBS, 0.0632 µM	60.6	88	91.5
RPMI 5 mM glucose + 10% dialyzed FBS, 0.19 µM	32.8	87.9	78.4
RPMI 5 mM glucose + 10% dialyzed FBS, 0.569 µM	29.1	88.4	81.1
RPMI 5 mM glucose + 10% dialyzed FBS, 1.71 µM	103	76.5	84.4
RPMI 5 mM glucose + 10% dialyzed FBS, 5.12 µM	29.2	77.2	93.6
RPMI 5 mM glucose + 10% dialyzed FBS, 15.4 µM	47.3	82	87.1
RPMI 5 mM glucose + 10% dialyzed FBS, 46.1 µM	37.7	78.4	80.6

Cn1cc(/C=C/C(=O)c2cccc(F)c2)cc1/C=C/C(=O)NO
AUC of viability dose-response curve
Conditions	[1]	[2]	[3]
HPLM + 10% dialyzed FBS	466	474	468
RPMI 5 mM glucose + 10% FBS	475	476	470
RPMI 5 mM glucose + 10% dialyzed FBS	462	469	468

[4], HPLM + 10% dialyzed FBS
Conditions	cell viability [%]
0.000781 µM	123
0.00234 µM	133
0.00702 µM	120
0.0211 µM	129
0.0632 µM	136
0.19 µM	120
0.569 µM	137
1.71 µM	128
5.12 µM	137
15.4 µM	132
46.1 µM	118

NCC1(CC(=O)O)CCCCC1
AUC of viability dose-response curve
Conditions	[1]	[2]	[3]
HPLM + 10% dialyzed FBS	466	460	468
RPMI 5 mM glucose + 10% FBS	434	475	442
RPMI 5 mM glucose + 10% dialyzed FBS	459	459	458

cell viability [%], [4]
Conditions	HPLM + 10% dialyzed FBS	RPMI 5 mM glucose + 10% dialyzed FBS
0.000781 µM	102	126
0.00234 µM	113	122
0.00702 µM	107	113
0.0211 µM	122	119
0.0632 µM	120	124
0.19 µM	130	117
0.569 µM	96.2	78
1.71 µM	59.5	59.1
5.12 µM	121	140
15.4 µM	127	136
46.1 µM	132	112
